Reference: US20120202690A1, “HERBICIDAL COMPOUNDS” (SYNGENTA LIMITED, priority 2009, published 2012)

Key:
Type in all cases: in vivo
[1] = test system: Alopecurus myosuroides (ALOMY); assay: Pre-emergence biological efficacy, glasshouse, 1000 g/ha, evaluated after 13 days (100=total damage to plant; 0=no damage to plant); details: Alopecurus myosuroides, 312 h, rate 1,000 g/ha, read-out: Percentage damage caused to weed species, pre-emergence, ALOMY
How it was run: (§1)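 Sowing: standard soil, pots. Growth: glasshouse, 24/16° C. day/night, 14 hours light, 65% humidity. Watering: twice daily.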

[2] = test system: Amaranthus retroflexus (AMARE); assay: as above; details: Amaranthus retroflexus, 312 h, rate 1,000 g/ha, read-out: Percentage damage caused to weed species, pre-emergence, AMARE
How it was run: as §1

[3] = test system: Echinochloa crus-galli (ECHCG); assay: as above; details: Echinochloa crus-galli, 312 h, rate 1,000 g/ha, read-out: Percentage damage caused to weed species, pre-emergence, ECHCG
How it was run: as §1

[4] = test system: Ipomoea hederaceae (IPOHE); assay: as above; details: Ipomoea, 312 h, rate 1,000 g/ha, read-out: Percentage damage caused to weed species, pre-emergence, IPOHE
How it was run: as §1

Setaria faberi (SETFA) [5] = assay: as above; details: Setaria faberi, 312 h, rate 1,000 g/ha, read-out: Percentage damage caused to weed species, pre-emergence, SETFA
How it was run: as §1

Solanum nigrum (SOLNI) [6] = assay: as above; details: Solanum nigrum, 312 h, rate 1,000 g/ha, read-out: Percentage damage caused to weed species, pre-emergence, SOLNI
How it was run: as §1

[7] = test system: Alopecurus myosuroides (ALOMY); assay: Post-emergence biological efficacy, glasshouse, 500 or 1000 g/ha, evaluated after 13 days (100=total damage to plant; 0=no damage to plant); details: Alopecurus myosuroides, 312 h, rate 1,000 g/ha, read-out: Percentage damage caused to weed species, post-emergence, ALOMY
How it was run: (§2)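 Damage is scored on pot-grown plants, sown in standard soil and sprayed after emergence, that were held post-treatment in a glasshouse (24/16° C. day/night, 14 hours light, 65% humidity).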

[8] = test system: Amaranthus retroflexus (AMARE); assay: as above; details: Amaranthus retroflexus, 312 h, rate 1,000 g/ha, read-out: Percentage damage caused to weed species, post-emergence, AMARE
How it was run: as §2

[9] = test system: Echinochloa crusgaffi (ECHCG); assay: as above; details: Echinochloa, 312 h, rate 1,000 g/ha, read-out: Percentage damage caused to weed species, post-emergence, ECHCG
How it was run: as §2

[10] = test system: Ipomoea hederaceae (IPOHE); assay: as above; details: Ipomoea, 312 h, rate 1,000 g/ha, read-out: Percentage damage caused to weed species, post-emergence, IPOHE
How it was run: as §2

Setaria faberi (SETFA) [11] = assay: as above; details: Setaria faberi, 312 h, rate 1,000 g/ha, read-out: Percentage damage caused to weed species, post-emergence, SETFA
How it was run: as §2

Solanum nigrum (SOLNI) [12] = assay: as above; details: Solanum nigrum, 312 h, rate 1,000 g/ha, read-out: Percentage damage caused to weed species, post-emergence, SOLNI
How it was run: as §2

Structure (SMILES)	pest or weed control at 1000 g/ha [1] [%]	pest or weed control at 1000 g/ha [2] [%]	pest or weed control at 1000 g/ha [3] [%]	pest or weed control at 1000 g/ha [4] [%]	pest or weed control at 1000 g/ha (Setaria faberi (SETFA) [5]) [%]	pest or weed control at 1000 g/ha (Solanum nigrum (SOLNI) [6]) [%]	pest or weed control at 1000 g/ha [7] [%]	pest or weed control at 1000 g/ha [8] [%]	pest or weed control at 1000 g/ha [9] [%]	pest or weed control at 1000 g/ha [10] [%]	pest or weed control at 1000 g/ha (Setaria faberi (SETFA) [11]) [%]	pest or weed control at 1000 g/ha (Solanum nigrum (SOLNI) [12]) [%]
CCOCCOC(=O)c1nc(-c2ccc(Cl)c(OC)c2F)cc2[nH]cc(C)c12 [Compound 22-82, 6-(4-Chloro-2-fluoro-3-methoxyphenyl)-4-[(2-ethoxy)-ethoxycarbonyl]-3-methyl-1H-pyrrolo[3,2-c]pyridine]	10	70	20	90	0	90	20	80	20	40	40	90
CCCCOCCOC(=O)c1nc(-c2ccc(Cl)c(OC)c2F)cc2[nH]cc(C)c12 [Compound 22-83]	20	0	20	80	10	80	20	90	20	60	40	90
CCCCOCC(C)OC(=O)c1nc(-c2ccc(Cl)c(OC)c2F)cc2[nH]cc(C)c12 (stereo not drawn) [Compound 22-84, 4-[(1-n-Butoxy)-prop-2-yloxycarbonyl]-6-(4-chloro-2-fluoro-3-methoxyphenyl)-3-methyl-1H-pyrrolo[3,2-c]pyridine]	20	40	20	80	10	70	20	80	20	40	30	90
COCCOCCOC(=O)c1nc(-c2ccc(Cl)c(OC)c2F)cc2[nH]cc(C)c12 [Compound 22-85, 6-(4-Chloro-2-fluoro-3-methoxyphenyl)-4-{2-[(2-methoxy)-ethoxy]-ethoxycarbonyl}-3-methyl-1H-pyrrolo[3,2-c]pyridine]	10	100	10	80	10	100	30	90	20	40	20	90
COc1c(Cl)ccc(-c2cc3[nH]cc(C)c3c(C(=O)OCc3ccccc3)n2)c1F [Compound 22-86, 4-Benzyloxycarbonyl-6-(4-chloro-2-fluoro-3-methoxyphenyl)-3-methyl-1H-pyrrolo[3,2-c]pyridine]	0	0	0	0	0	10	10	40	10	40	0	70
COc1c(Cl)ccc(-c2cc3[nH]cc(C)c3c(C(=O)OCc3ccco3)n2)c1F [Compound 22-87, 6-(4-Chloro-2-fluoro-3-methoxyphenyl)-4-(2-furanyl-methoxycarbonyl)-3-methyl-1H-pyrrolo[3,2-c]pyridine]	10	20	10	80	10	70	20	80	10	70	40	90
COc1c(Cl)ccc(-c2cc3[nH]cc(C)c3c(C(=O)OCC3CCCO3)n2)c1F (stereo not drawn) [Compound 22-88, 6-(4-Chloro-2-fluoro-3-methoxyphenyl)-3-methyl-4-(tetrahydrofuran-2-yl-methoxycarbonyl)-1H-pyrrolo[3,2-c]pyridine]	10	100	0	50	10	100	30	80	20	60	40	90
COC(=O)c1nc(Cl)cc2[nH]ccc12 [Compound 22-122, 6-chloro-4-methoxycarbonyl-1H-pyrrolo[3,2-c]pyridine]	0	0	0	0	0	0	0	60	0	10	0	20
COC(=O)c1nc(Cl)cc2[nH]cc(C)c12 [Compound 22-124, 6-chloro-4-methoxycarbonyl-3-methyl-1H-pyrrolo[3,2-c]pyridine]	70	100	20	100	30	100	30	80	20	80	40	90
COC(=O)c1nc(Cl)cc2[nH]cc(Cl)c12 [Compound 22-132, 3,6-dichloro-4-methoxycarbonyl-1H-pyrrolo[3,2-c]pyridine]	0	0	0	40	0	10	0	50	0	50	0	60
COC(=O)c1nc(-c2ccc(Cl)c(OC)c2F)cc2c1ccn2Cc1ccco1 [Compound 32-62, 6-(4-Chloro-2-fluoro-3-methoxyphenyl)-1-(2-furanyl-methyl)-4-methoxycarbonyl-1H-pyrrolo[3,2-c]pyridine]	30	80	30	20	20	80	10	80	50	70	40	80
COC(=O)c1nc(-c2ccc(Cl)c(OC)c2F)cc2c1c(C)cn2C(=O)C(C)(C)C [Compound 37-64, 1-t-Butylcarbonyl-6-(4-chloro-2-fluoro-3-methoxyphenyl)-4-methoxycarbonyl-3-methyl-1H-pyrrolo[3,2-c]pyridine]	0	0	0	0	0	0	0	0	0	40	0	50
